Measurements from patent US20050085645A1, “O-(3-chloropropenyl) hydroxylamine free base” (priority 2003, published 2005).

Assays:
[1] = Storage stability of CPHA free base and CPHA-HCl solutions (decomposition / GC purity drop); format: physicochemical
Description: Neither preparation nor applications of solvent-free CPHA free base or aqueous CPHA solution has been reported in the prior art. […] For example, a commercial 40% CPHA-HCl solution decomposes by 52% after 23 days at 35° C., whereas, a 85% CPHA aqueous solution has only 1.1% purity drop after 78 days at 40° C.
The GC method set up for CPHA purity, impurity profile, and hydroxylamine content determination is described as follows. • Instrument: HP 6890 series GC system. • Column: HP-1 capillary column, 10 m×0.53 mm×[…]. • Detector: FID, 250° C. • Inlet: 200° C. • Oven Temperature program: • Initial temperature: 40° C. • Initial time: 2 minutes. • Ramps: 10° C./min, 65° C., 0 minutes • 20° C./min, 250° C., 3 minutes.
Weigh about 2.00 g of sample in a vial containing 2.20 g of cyclohexanone; Add 50% sodium hydroxide if necessary to bring pH to above 9. Stir the mixture in the capped vial at 50° C. for 2 hours. After cooling, add 8.0 g of dichloromethane and shake for one minute. Settle the mixture for 5 minutes. Take the organic phase for gas chromatographic (GC) analysis. CPHA purity and impurity profile are directly based on GC area. Hydroxylamine content is calculated based on the integration area of cyclohexanone oxime (cyclohexanoxime) peak and O-(chloro-2-propenyl)cyclohexanoxime peak.

[2] = Solubility / miscibility in water; format: physicochemical
plants = experiment: Herbicidal potency of clethodim enantiomer versus racemate; format: in vivo; details: used in a herbicidal composition; no test data given
[3] = Solubility in organic solvents; format: physicochemical; details: ethers, alcohol, toluene, chlorinated alkanes
Excerpt: For example, to make a O-(3-chloro-2-propenyl)hydroxylamine solution in dichloromethane, CPHA is simply mixed with dichloromethane. No exotherm was observed.

## Cl.NOCC=CCl [CPHA-HCl, O-(3-chloro-2-propenyl)hydroxylamine hydrochloride, reference compound]
[1]; commercial 40% CPHA-HCl solution, after 23 days at 35° C.
  decomposition of solution: 52%
[2]; commercially available CPHA-HCl solution in water
  maximum solubility: about 45%

## CCSC(C)CC1CC(=O)C(/C(CC)=N/OC/C=C/Cl)=C(O)C1 (single isomer, unassigned; (-)) [(−) clethodim]
plants
  potency compared to the racemic form or (+) clethodim: increased potency

## NOCC=CCl [CPHA, O-(3-Chloro-2-propenyl)hydroxylamine]
[3]
  solubility in organic solvents: soluble in many organic solvents
[1]; 85% CPHA aqueous solution, after 78 days at 40° C.
  purity drop: 1.1%
[2]; room temperature
  miscibility with water: miscible with water
